Read-outs that look alike come from different tables or passages of the source.
Target: T1, DCAF1 WD40 domain (residues 1077-1390) (Homo sapiens, UniProt Q9Y4B6)
T1 construct: DCAF1 WD40 domain (residues 1077-1390)
Assay: DCAF1 binding assay by SPR (Biacore 8K+), DCAF1-3 KD
Conditions: 25 °C

T1 sequence (Q9Y4B6 1077-1390): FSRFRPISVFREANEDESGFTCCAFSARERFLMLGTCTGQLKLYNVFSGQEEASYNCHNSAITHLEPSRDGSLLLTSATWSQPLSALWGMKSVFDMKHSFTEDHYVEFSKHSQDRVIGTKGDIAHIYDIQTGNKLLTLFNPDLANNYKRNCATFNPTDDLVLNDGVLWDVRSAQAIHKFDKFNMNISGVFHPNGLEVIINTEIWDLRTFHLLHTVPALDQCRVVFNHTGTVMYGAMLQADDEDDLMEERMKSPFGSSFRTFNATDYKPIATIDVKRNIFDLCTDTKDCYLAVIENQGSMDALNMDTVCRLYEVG

| Compound | Kd (DCAF1-3 SPR (KD)) [µM] | Kd (read-out: DCAF1-3 SPR (KD)) [µM] |
| --- | --- | --- |
| NC(=O)OCc1cc(F)cc(N2CCC[C@H]3[C@@H]2CCN3c2cc(N3CC4CC(C4)C3)ccn2)c1 [I-1035, 3-((3aS,7aS)-1-(4-(3-azabicyclo[3.1.1]heptan-3-yl)pyridin-2-yl)octahydro-4H-pyrrolo[3,2-b]pyridin-4-yl)-5-fluorobenzyl carbamate] | < 10 | – |
| Fc1cccc(N2CCCC[C@@H](Nc3cc(N4CCOCC4)ncn3)C2)c1 [I-219] | – | > 200 |
| Fc1cccc(N2CCC[C@@H](Nc3cnnc(N4CCOCC4)c3)C2)c1 [I-381] | – | > 200 |
| c1ccc2nc(N3CCC[C@@H](Nc4cc(N5CCOCC5)ncn4)C3)ccc2c1 [I-397] | – | > 200 |
| c1cc(N2CCCCC2)cc(N[C@H]2CCC[C@H](C3CCCCC3)C2)n1 [I-750] | – | > 200 |
| c1ccc(CN2CCc3ncnc(N4CCC[C@@H](Nc5cc(N6CCOCC6)ccn5)C4)c3C2)cc1 [I-870] | – | 10 to 100 |
| CN1C[C@H](Nc2cc(N3CCOCC3)ccn2)CCC1CC(=O)Nc1cccc(Cl)c1 (some centres unmarked) [I-145] | – | > 200 |
| c1ccc2cc(N3CCC[C@@H](Nc4cc(N5CCOCC5)ncn4)C3)ncc2c1 [I-398] | – | > 200 |
| Cc1cn2cc(N3CCC[C@@H](Nc4cc(N5CCOCC5)ccn4)C3)ccc2n1 [I-763] | – | 10 to 100 |
| C=CC(=O)NC1CCN(c2ccnc(N[C@@H]3CCCN(c4cccc(F)c4)C3)c2)CC1 [I-451] | – | > 200 |
| Fc1cccc(N2CCC[C@@H](Nc3cc(C4=CCCOC4)ccn3)C2)c1 [I-122] | – | > 200 |
| NCCCCCCCCCCCCCCCCCC(=O)c1[nH]cc(C(=O)N[C@@H](CC(N)=O)c2cccc(Cl)c2)c1-c1ccccc1F [I-662] | – | > 200 |
| O=C(C[C@H](NC(=O)c1cn[nH]c1-c1ccccc1F)c1cccc(Cl)c1)NC1CC1 [I-142] | – | > 200 |
| OCCC[C@@H]1C[C@@H]2[C@@H](CCCN2c2cccc(F)c2)N1c1cc(N2CCCCC2)ccn1 [I-821] | – | > 200 |
| c1ccc(Oc2cncc(N3CCC[C@@H](Nc4cc(N5CCOCC5)ccn4)C3)c2)cc1 [I-436] | – | 10 to 100 |
| C=CC(=O)N1CCC2(CC1)CCN(c1ccnc(N[C@@H]3CCCN(c4cccc(F)c4)C3)c1)CC2 [I-642] | – | 10 to 100 |
| NC(=O)C[C@H](NC(=O)c1c[nH]nc1-c1cccc2cc[nH]c12)c1cccc(Cl)c1 [I-235] | – | > 200 |
| c1ccc([C@H]2CCC[C@H](Nc3cc(N4CCCCC4)ccn3)C2)cc1 [I-755] | – | < 10 |
| C=CC(=O)NCN1CCN(c2ccnc(N[C@@H]3CCCN(c4cccc(F)c4)C3)c2)CC1 [I-466] | – | 10 to 100 |
| c1cc(C2CC2)cc(N2CCC[C@@H](Nc3cc(N4CCOCC4)ccn3)C2)c1 [I-526] | – | 10 to 100 |
| C=CC(=O)Nc1cccc(N2CCC[C@@H](Nc3cc(N4CCOCC4)ccn3)C2)c1 [I-450] | – | > 200 |

| Compound | Kd (DCAF1-3 SPR (KD)) [µM] | Kd (read-out: DCAF1-3 SPR (KD)) [µM] |
| --- | --- | --- |
| Cc1c(F)ccc(F)c1-c1c(C(=O)N[C@@H](CC(N)=O)c2cccc(Cl)c2)cn(C)c1C#N [I-887, (S)—N-(3-amino-1-(3-chlorophenyl)-3-oxopropyl)-5-cyano-4-(3,6-difluoro-2-methylphenyl)-1-methyl-1H-pyrrole-3-carboxamide] | < 10 | – |
| NC(=O)C[C@H](NC(=O)CCc1nc2c(F)cccc2[nH]1)c1cccc(Cl)c1 [I-441] | – | > 200 |
| NC(=O)C[C@H](NC(=O)c1cn[nH]c1-c1ccccc1F)c1cccc(O)c1 [I-129] | – | > 200 |
| N#Cc1ccc([C@H](CC(N)=O)NC(=O)c2c[nH]nc2-c2ccccc2F)cc1 [I-118] | – | < 10 |
| OCc1c(CN2CCCCC2)cccc1C1CCCN(c2cccc(F)c2)C1 (centres unmarked) [I-981] | – | 10 to 100 |
| Fc1cccc(N2CCCC(n3cnc4nccc(N5CCOCC5)c43)C2)c1 (centres unmarked) [I-324] | – | > 200 |
| NC(=O)Cc1ccc(N2CCC[C@@H](Nc3cc(N4CCOCC4)ccn3)C2)cc1 [I-863] | – | > 200 |
| Fc1cccc(N2CCC[C@]3(CCc4cnc(N5CCOCC5)cc4N3)C2)c1 [I-214] | – | > 200 |
| OCc1cnc(N2CCOCC2)cc1N[C@@H]1CCCN(c2cccc(F)c2)C1 [I-410] | – | > 200 |
| CCCn1cc(N2CCC[C@@H](Nc3cc(N4CCOCC4)ccn3)C2)cn1 [I-694] | – | > 200 |
| Fc1cccc(N2CC[C@@H]3CN(c4cc(N5CCCCC5)ccn4)C[C@@H]32)c1 [I-667] | – | 10 to 100 |
| c1cncc(N2CCC[C@@H](Nc3cc(N4CCOCC4)ncn3)C2)c1 [I-12] | – | > 200 |
| Cc1c(F)ccc(F)c1-c1[nH]ncc1C(=O)N[C@H](CC(N)=O)c1ccc(F)c(Cl)c1 [I-818] | – | < 10 |
| NC(=O)C[C@H](NC(=O)c1cn[nH]c1-c1cc(CCC(=O)O)ccc1F)c1cccc(Cl)c1 [I-284] | – | 10 to 100 |
| NC(=O)C[C@H](NC(=O)c1cn[nH]c1-c1ccc(F)cc1)c1cccc(Cl)c1 [I-116] | – | < 10 |
| Fc1cccc(N2CCNC(Cc3cc(N4CCOCC4)ncn3)C2)c1 (centres unmarked) [I-225] | – | > 200 |
| O=C(c1cc(N2CCCCC2)ccn1)[C@@H]1CCCN(c2cccc(F)c2)C1 [I-612] | – | > 200 |
| CN(c1cccc(F)c1)[C@@H]1CCN(c2cc(N3CCCCC3)ccn2)C1 [I-673] | – | < 10 |
| Oc1cnc(N2CCOCC2)cc1N[C@@H]1CCCN(c2cccc(F)c2)C1 [I-382] | – | > 200 |
| Oc1ccccc1N1CCC[C@@H](Nc2cc(N3CCOCC3)ncn2)C1 [I-16] | – | > 200 |
| OC[C@@H]1C[C@H](Nc2cc(N3CCCCC3)ccn2)CN(c2cccc(F)c2)C1 [I-1011] | – | 10 to 100 |

| Compound | Kd (DCAF1-3 SPR (KD)) [µM] | Kd (read-out: DCAF1-3 SPR (KD)) [µM] |
| --- | --- | --- |
| Clc1cccc(N2CCC[C@@H]3[C@H]2CCN3c2cc(N3CC4CC(C4)C3)ccn2)c1 [I-707] | – | > 200 |
| Cc1cccc([C@H](CC(N)=O)NC(=O)c2cn[nH]c2-c2ccccc2F)c1 [I-108] | – | < 10 |
| Nc1cc(N[C@@H]2CCCN(c3cccc(F)c3)C2)cc(C2CCCCC2)c1 [I-970] | – | 10 to 100 |
| NC(=O)C[C@H](NC(=O)c1c[nH]c(C(=O)c2ccccc2)c1-c1c(F)c(F)cc(F)c1F)c1cccc(Cl)c1 [I-949] | – | < 10 |
| O=C(c1cc(N2CCCCC2)ccn1)[C@H]1CCCN(c2cccc(F)c2)C1 [I-613] | – | 10 to 100 |
| Fc1cccc(N2CCC[C@@H](N(Cc3ccccc3)c3cc(N4CCOCC4)ncn3)C2)c1 [I-387] | – | > 200 |
| C[C@@H](O)c1cncc(N2CCC[C@@H](Nc3cc(N4CCOCC4)ccn3)C2)c1 [I-484] | – | > 200 |
| C=CC(=O)Nc1ccc2[nH]nc(C(=O)N[C@@H](CC(N)=O)c3cccc(Cl)c3)c2c1 [I-302] | – | > 200 |
| Fc1cccc(N2CCC[C@@H](Nc3cc(N4CCCCC4)cc4c3CNC4)C2)c1 [I-1050] | – | 10 to 100 |
| Cc1cccc(F)c1-c1c(C(=O)N[C@@H](CC(N)=O)c2cccc(Cl)c2)c[nH]c1Nc1cc(N2CCCCC2)ccn1 [I-744] | – | < 10 |
| NC(=O)C[C@H](NC(=O)c1cn[nH]c1-c1cnsc1)c1cccc(Cl)c1 [I-158] | – | 10 to 100 |
| Cc1c(F)ccc(F)c1-c1[nH]ncc1C(=O)N[C@H](c1cccc(Cl)c1)[C@H]1CCOC1 [I-968] | – | 10 to 100 |
| O=c1[nH]cc(C2=CCOCC2)cc1N[C@@H]1CCCN(c2cccc(F)c2)C1 [I-647] | – | 10 to 100 |
| c1ccc2c(N3CCC[C@@H](Nc4cncc(N5CCOCC5)c4)C3)nccc2c1 [I-364] | – | 10 to 100 |
| N#Cc1[nH]cc(C(=O)N[C@@H](CC(N)=O)c2cccc(Cl)c2)c1-c1ccccc1F [I-598] | – | < 10 |
| C=CC(=O)N[C@H]1CCN(c2ccnc(N[C@@H]3CCCN(c4cccc(F)c4)C3)c2)C1 [I-478] | – | > 200 |
| Cc1c(F)ccc(F)c1-c1[nH]ncc1C(=O)N[C@@H](CC(=O)N1CCN(C(=O)OCc2ccccc2)CC1)c1cccc(Cl)c1 [I-884] | – | < 10 |
| c1cc(N2CCOCC2)cc(N[C@@H]2CCCN(c3cnn[nH]3)C2)n1 [I-534] | – | > 200 |
| Cc1ccccc1C(=O)c1[nH]cc(C(=O)N[C@@H](CC(N)=O)c2cccc(Cl)c2)c1-c1c(C)cccc1F [I-626] | – | < 10 |
| c1ccc(N2CCC[C@@H](Nc3cc(N4CCOCC4)ncn3)C2)cc1 [I-2] | – | 100 to 200 |
| COc1ncccc1-c1[nH]ncc1C(=O)N[C@@H](CC(N)=O)c1cccc(Cl)c1 [I-504] | – | > 200 |

| Compound | Kd (DCAF1-3 SPR (KD)) [µM] | Kd (read-out: DCAF1-3 SPR (KD)) [µM] |
| --- | --- | --- |
| Cc1c(F)ccc(F)c1-c1c(C(=O)N[C@@H](CC(N)=O)c2cccc(Cl)c2)cn(C)c1C(=O)c1ccc(CN2CCC(C=O)CC2)cc1 [I-1037] | – | < 10 |
| Fc1cccc(N2CCC[C@@H](Nc3nc(N4CCOCC4)c[nH]3)C2)c1 [I-326] | – | > 200 |
| NC(=O)C[C@H](NC(=O)c1c[nH]c(Nc2ccccc2)c1-c1c(F)cccc1F)c1cccc(Cl)c1 [I-629] | – | < 10 |
| c1cc(N2CCCCC2)cc(N[C@@H]2CCC[C@H](C3CCCCC3)C2)n1 [I-751] | – | > 200 |
| C=CC(=O)NCCCC1CCN(c2ccnc(N3CC[C@H]4[C@@H]3CCCN4c3cccc(F)c3)c2)CC1 [I-712] | – | < 10 |
| C=CC(=O)N(C)CCCCC1CCN(c2ccnc(N3CC[C@@H]4[C@H]3CCCN4c3cccc(F)c3)c2)CC1 [I-850] | – | < 10 |
| C[C@@]1(Nc2cc(N3CCOCC3)ncn2)CCCN(c2cccc(F)c2)C1 [I-176] | – | > 200 |
| NC(=O)C[C@H](NC(=O)c1c[nH]cc1-c1ccccc1F)c1ccccc1Cl [I-96] | – | 10 to 100 |
| C=CC(=O)N1CCc2[nH]nc(C(=O)N[C@@H](CC(N)=O)c3cccc(Cl)c3)c2C1 [I-300] | – | > 200 |
| c1ccc2cc(N3CCC[C@@H](Nc4nccc(N5CCOCC5)n4)C3)ncc2c1 [I-47] | – | 100 to 200 |
| C[C@H](NC(=O)c1c[nH]nc1-c1ccccc1F)c1cccc(Cl)c1 [I-106] | – | 10 to 100 |
| Fc1cccc(N2CCC[C@@H](Nc3cc([C@H]4CCCOC4)ccn3)C2)c1 [I-125] | – | > 200 |
| Cn1nccc1-c1[nH]ncc1C(=O)N[C@@H](CC(N)=O)c1cccc(Cl)c1 [I-157] | – | 10 to 100 |
| Cc1c(F)ccc(F)c1-c1[nH]ncc1C(=O)N[C@@H](c1cccc(Cl)c1)[C@@H]1CCCS1(=O)=O [I-1002] | – | < 10 |
| Cc1cccc(F)c1-c1[nH]ncc1C(=O)N[C@H](CC(N)=O)c1cc(F)cc(Cl)c1 [I-749] | – | < 10 |
| Fc1cccc(N2CCCC(N3CCc4c(N5CCCCC5)ccnc43)C2)c1 (centres unmarked) [I-789] | – | < 10 |
| Fc1cccc(N2CCNC(Cc3cc(N4CCCCC4)ccn3)C2)c1 (centres unmarked) [I-743] | – | > 200 |
| NC[C@@H]1CCN(c2cccc(F)c2)C[C@@H]1Nc1cc(N2CCCCC2)ccn1 [I-1045] | – | 100 to 200 |
| C=CC(=O)N1CCN(c2ccnc(N[C@@H]3CCCN(c4cccc(F)c4)C3)c2)CC1 [I-446] | – | > 200 |
| Fc1cccc(N2CCC[C@@H](Nc3cc(N4CCNCC4)ncn3)C2)c1 [I-373] | – | > 200 |

Reference: US20260373266A1, “PROTEIN DEGRADERS AND USES THEREOF” (KYMERA THERAPEUTICS, INC., priority 2022, published 2026)
